The values below come from ChEMBL document CHEMBL1201862, “PubChem BioAssay data set” (2004).

Structures are written as SMILES.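 Growth conditions: 96-well plates. Treatment: test compound, 48 hours, 5 concentrations. Analysis: linear interpolation between bracketing concentrations; unreached endpoints set to highest concentration. Abbreviation: GI50, concentration required for 50% inhibition of growth.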 Active and inactive are the calls of the source. No stated cut-off is given here; in the data, active = GI50 up to about 1.1 µM and inactive = higher.

Some test systems named below: OVCAR-4; HL-60; CAKI-1; MCF7; OVCAR-3; HCT-116; OVCAR-8; Hs-578T; LOX IMVI; HCT-15; SF-268; ACHN; HCC 2998; U-251; NCI-H522; RXF 393; A549; IGROV-1; 786-0; SK-MEL-2.
Test in all cases: NCI-60 cell line screen, 48 h

Consider `Cc1c(Cl)c(S(N)(=O)=O)cc(S(N)(=O)=O)c1NC(=O)c1ccc(Cl)cc1`, for which the GI50 in the assay on OVCAR-4, with HL-60, with CAKI-1, in the assay on MCF7, in the assay on OVCAR-3 and with HCT-116 was > 100 µM (inactive) in each case. For the same compound, the GI50 with OVCAR-8 is > 100 µM (inactive); in the assay on Hs-578T it was > 100 µM (inactive); with LOX IMVI, > 100 µM (inactive); in the assay with HCT-15, above 100 µM; in the assay with SF-268, > 100 µM (inactive); in the assay on ACHN it was > 100 µM (inactive). The GI50 in the assay with HCC 2998, with U-251, in the assay on NCI-H522, with RXF 393, in the assay with A549 and in the assay with IGROV-1 was > 100 µM (inactive) throughout. In addition, in the assay with 786-0, the GI50 is > 100 µM (inactive).

`O=C(c1ccccc1)c1c(-c2ccccc2)[nH]n(-c2ccc([N+](=O)[O-])cc2)c(=O)c1=O`: the GI50 is 25.8 µM (inactive) in the assay with OVCAR-4; > 100 µM (inactive) with HL-60; 87.3 µM (inactive) in the assay with CAKI-1; 33.7 µM (inactive) with MCF7; 56.2 µM (inactive) with OVCAR-3; 53.2 µM (inactive) with HCT-116. Besides, the GI50 in the assay with OVCAR-8 was 31.1 µM (inactive); in the assay on SK-MEL-2, 21.1 µM (inactive); with Hs-578T, 0.504 µM (active); with HCT-15 it was 39.5 µM; in the assay on SF-268, 40.2 µM (inactive); in the assay on ACHN, 99.1 µM (inactive). The GI50 in the assay with HCC 2998 was 64.7 µM (inactive); with U-251 it was 5.78 µM (inactive); with NCI-H522, 23.4 µM (inactive); in the assay with RXF 393, > 100 µM (inactive); in the assay on A549, 38.5 µM (inactive); with IGROV-1 it was > 100 µM (inactive). In addition, the GI50 with 786-0 is > 100 µM (inactive).

As for `N#CC(C#N)=C1C(C#N)=C(N)NC12OCCO2`, the GI50 in the assay with OVCAR-4, with HL-60, with CAKI-1, in the assay with MCF7, in the assay with HCT-116 and with OVCAR-8 was > 100 µM (inactive) in each case. The GI50 was > 100 µM (inactive) in the assay on SK-MEL-2; > 100 µM (inactive) in the assay with Hs-578T; > 100 µM (inactive) with LOX IMVI; above 100 µM with HCT-15; > 100 µM (inactive) in the assay on SF-268; > 100 µM (inactive) with ACHN. Also, the GI50 in the assay on HCC 2998, in the assay on U-251, with NCI-H522, in the assay with RXF 393, in the assay with A549 and in the assay on IGROV-1 was > 100 µM (inactive) in each case. In the assay with 786-0, the GI50 is > 100 µM (inactive).

Turning to `COc1ccc2cc(CNCCCCCCNCc3ccc4cc(OC)ccc4c3)ccc2c1`, the GI50 in the assay with HL-60 is 0.181 µM (active); with CAKI-1, 1.38 µM (inactive); with MCF7, 0.319 µM (active); in the assay on OVCAR-3 it was 0.575 µM (active); in the assay with HCT-116, 0.176 µM (active); with OVCAR-8 it was 0.531 µM (active). Also, the GI50 was 1.24 µM (inactive) with SK-MEL-2; 1.75 µM (inactive) with Hs-578T; 0.181 µM (active) with LOX IMVI; 0.406 µM in the assay on HCT-15; 0.565 µM (active) in the assay with SF-268; 1.57 µM (inactive) in the assay on ACHN. The GI50 in the assay with HCC 2998 is 0.132 µM (active); in the assay on U-251, 0.231 µM (active); in the assay on NCI-H522, 0.64 µM (active); in the assay on RXF 393, 1.52 µM (inactive); in the assay on A549, 1.86 µM (inactive); with IGROV-1, 1.57 µM (inactive). In addition, the GI50 in the assay on 786-0 was 0.902 µM (active).

As for `C/C(=N\Nc1nc2ccccc2s1)c1ncccn1`, the GI50 is < 0.01 µM (active) in the assay on HL-60; < 0.01 µM (active) in the assay with CAKI-1; 0.0164 µM (active) with MCF7; < 0.0215 µM (active) in the assay with OVCAR-3; < 0.0193 µM (active) in the assay with HCT-116; < 0.016 µM (active) with OVCAR-8. For the same compound, the GI50 with SK-MEL-2 was 0.92 µM (active); in the assay with Hs-578T, 0.59 µM (active); with HCT-15, 0.0215 µM; in the assay on SF-268, 0.0345 µM (active); with ACHN it was < 0.01 µM (active); with HCC 2998 it was 0.953 µM (active). For the same compound, the GI50 is < 0.0196 µM (active) in the assay with U-251; 0.0128 µM (active) in the assay with NCI-H522; 1.04 µM (active) with RXF 393; 0.141 µM (active) in the assay on A549; 0.0183 µM (active) in the assay with IGROV-1; 0.0336 µM (active) in the assay on 786-0.

With `COc1cccc(C2c3cc4c(cc3OC(NNS(=O)(=O)c3ccc(C)cc3)C2C)OCO4)c1OC` (stereo unspecified), the GI50 in the assay with HL-60 was 1.42 µM (inactive); in the assay on CAKI-1 it was 2.29 µM (inactive); in the assay with MCF7 it was 2.99 µM (inactive); in the assay on OVCAR-3 it was 1.75 µM (inactive); with HCT-116 it was 1.78 µM (inactive); in the assay with OVCAR-8, 27.4 µM (inactive). Also, the GI50 with SK-MEL-2 is 2.31 µM (inactive); with Hs-578T, 1.83 µM (inactive); with LOX IMVI it was 2.08 µM (inactive); in the assay on HCT-15 it was 2.65 µM; in the assay on SF-268, 4.3 µM (inactive); in the assay with ACHN it was 2.77 µM (inactive). In addition, the GI50 in the assay on HCC 2998 was 5.36 µM (inactive); with U-251, 2.62 µM (inactive); in the assay on NCI-H522, 1.88 µM (inactive); with RXF 393, 2.12 µM (inactive); with A549, 2.62 µM (inactive); with IGROV-1, 2.52 µM (inactive). Further, in the assay on 786-0, the GI50 is 22.2 µM (inactive).

Regarding `CN1N=C(c2ccncc2)OC1c1ccc(Cl)cc1Cl` (stereo unspecified), the GI50 in the assay on OVCAR-4 is 43.6 µM (inactive); in the assay on HL-60 it was 41.2 µM (inactive); in the assay on MCF7, > 100 µM (inactive); in the assay with OVCAR-3, 64.3 µM (inactive); in the assay on HCT-116 it was 93.1 µM (inactive); with OVCAR-8, > 100 µM (inactive). The GI50 is > 100 µM (inactive) in the assay on SK-MEL-2; > 100 µM (inactive) in the assay on Hs-578T; > 100 µM (inactive) in the assay with LOX IMVI; above 100 µM in the assay on HCT-15; > 100 µM (inactive) with SF-268; 74.6 µM (inactive) in the assay with ACHN. The GI50 with HCC 2998 was > 100 µM (inactive); in the assay on U-251 it was > 100 µM (inactive); in the assay with NCI-H522, 72.6 µM (inactive); in the assay with RXF 393 it was > 100 µM (inactive); with A549, > 100 µM (inactive); in the assay with IGROV-1, > 100 µM (inactive). Moreover, in the assay on 786-0, the GI50 is 97.7 µM (inactive).

`CC#CCCCC1(C)CCNC1=S` (stereo unspecified): the GI50 in the assay with OVCAR-4, in the assay with HL-60, in the assay with MCF7, in the assay on OVCAR-3, with OVCAR-8 and with SK-MEL-2 was > 10 µM (inactive) throughout. For the same compound, the GI50 was > 10 µM (inactive) in the assay with Hs-578T; > 10 µM (inactive) with LOX IMVI; above 10 µM with HCT-15; > 10 µM (inactive) with SF-268; > 10 µM (inactive) with ACHN; > 10 µM (inactive) in the assay on HCC 2998. Also, the GI50 with U-251, with NCI-H522, in the assay with RXF 393, in the assay with A549 and in the assay with 786-0 was > 10 µM (inactive) in each case.

For the compound `O=c1c2ccccc2n2n1Cc1ccccc1C2`, the GI50 with OVCAR-4, in the assay with HL-60, in the assay with CAKI-1, in the assay on MCF7, in the assay with OVCAR-3 and with HCT-116 was > 100 µM (inactive) throughout. Also, the GI50 was > 100 µM (inactive) in the assay with OVCAR-8; 57.9 µM (inactive) in the assay with Hs-578T; > 100 µM (inactive) in the assay on LOX IMVI; above 100 µM in the assay on HCT-15; > 100 µM (inactive) in the assay with SF-268; > 100 µM (inactive) in the assay with ACHN. Moreover, the GI50 in the assay with HCC 2998, with U-251, with NCI-H522, in the assay with RXF 393, with A549 and with IGROV-1 was > 100 µM (inactive) each time. In the assay on 786-0, the GI50 was > 100 µM (inactive).

For `c1ccc2[nH]c3[nH]c4[nH]c5ccccc5[nH]c4[nH]c3[nH]c2c1`, the GI50 in the assay with HL-60, with CAKI-1, with MCF7, with OVCAR-3, in the assay with HCT-116 and in the assay with OVCAR-8 was > 100 µM (inactive) throughout. The GI50 in the assay with SK-MEL-2 was > 100 µM (inactive); with Hs-578T, 60.7 µM (inactive); in the assay with LOX IMVI, > 100 µM (inactive); in the assay with HCT-15, above 100 µM; with SF-268, > 100 µM (inactive); with ACHN, > 100 µM (inactive). The GI50 in the assay with HCC 2998, in the assay with U-251, in the assay with NCI-H522, with RXF 393, in the assay with A549 and in the assay with IGROV-1 was > 100 µM (inactive) each time. For the same compound, the GI50 with 786-0 was > 100 µM (inactive).

`CN(C)Cc1cc(C(=O)/C=C/c2ccc(F)cc2)cc(CN(C)C)c1O`: the GI50 in the assay on OVCAR-4 was 41.8 µM (inactive); in the assay on HL-60, 11.5 µM (inactive); with CAKI-1 it was 18.7 µM (inactive); in the assay on MCF7 it was 16.2 µM (inactive); with OVCAR-3, 9.23 µM (inactive); in the assay on HCT-116, 13.4 µM (inactive). The GI50 with OVCAR-8 is 21.4 µM (inactive); with Hs-578T, 24.7 µM (inactive); with LOX IMVI, 5.92 µM (inactive); with HCT-15, 7.78 µM; in the assay on SF-268, 22.8 µM (inactive); in the assay with ACHN it was 14.6 µM (inactive). Besides, the GI50 was > 10 µM (inactive) with HCC 2998; 24.4 µM (inactive) with U-251; 15.2 µM (inactive) in the assay on NCI-H522; 12.9 µM (inactive) in the assay with RXF 393; 26.6 µM (inactive) in the assay with A549; 22.4 µM (inactive) in the assay on IGROV-1. In addition, in the assay on 786-0, the GI50 is 37.7 µM (inactive).
